Data set [1] can be described thus: In vitro metabolic stability in rat liver microsome. As to conditions: rat liver microsomes. The format is in vitro ADME. As for the experimental part: (§1) 1900 mg MgCl2 was dissolved into a final volume of 400 mL ultra-pure water.
(§2) 17.42 g K2HPO4 and 13.65 g KH2PO4 were dissolved into a final volume of 1000 mL ultra-pure water, respectively. K2HPO4 and KH2PO4 were mixed to prepare 100 mM potassium phosphate (PBS) buffer. The pH value of the final solution was adjusted to pH 7.30±0.10.
(§3) Cold ACN (including 10 ng/mL Labetalol and 10 ng/mL Glibenclamid) was stored at 4° C.
(§4) Working Solution Preparation:
(§5) Verapamil (positive control) and test compound stock solution were diluted into a concentration of 50 μM and 200 μM respectively, using MeOH/ACN/H2O solution (1:1:2, v/v/v).
(§6) 1) 40 μL MgCl2 and 306 μL PBS were added to 96 plate wells (blank, compound wells, compounds without NADPH wells)
(§7) 2) 4 μL compound working solution was added to above wells (blank: 4 μL PBS buffer) (Note: the volume of DMSO in final incubation system ≤0.5%)
(§8) 3) 10 μL microsomes (20 mg/mL) was added in each well. The mixture was warmed up for 10 minutes at 37.0° C.
(§9) 4) 40 μL 10 mM NADPH working solution was added to start reaction. The total volume was 400 μL.
(§10) 5) Aliquots of 50 μL samples were taken from the reaction solution at 0, 5, 15, 45 min. The reaction solutions were stopped by the addition of 400 μL stop solution.
(§11) 6) The sampling plates were shaked for approx. 5 min.
(§12) 7) Samples were centrifuged at 3200 rcf for 10 min. then transferred 50 μL to a new plate dilute with 200 μL H2O for LC/MS/MS analysis.
(§13) Use equation of first order kinetics to calculate t1/2 and CL: […]
(§14) Where k represents elimination constant, which is calculated from a log linear plot of % Remaining versus time. t1/2 represents the half-life. Cprotein is the concentration of liver microsomes.

Data set [2] is described as follows: In vitro metabolic stability in human liver microsome. The format is in vitro ADME. Particulars: human liver microsomes. As for the experimental part: as §1, §2, §3, §4, §5, §6, §7, §8, §9, §10, §11, §12, §13, §14
The next data set deals with T1, hERG channel (Homo sapiens, UniProt Q12809).
T1 construct: expressed in transfected cells; host or cells: HEK-293
Put plainly: Patch clamp assay to test the effect of compound on hERG channel. It is filed as cell-based. As to conditions: manual patch clamp, HEK 293 cells expressed with hERG, concentration for half maximum effect. As for the experimental part: 10 mL extracellular solution was used to dilute the stock solution, making the final concentrations of test compound were 0.3 μM, 1 μM, 3 μM, 10 μM and 30 μM.
The solubility of compound was visually observed.
The cell line was derived from HEK-293 cells, and grown in a humidified environment at 37° C. under 5% CO2, using the media formulation below. The cell line should not be allowed to exceed 80% confluence within the culture vessel to prevent contact inhibition causing senescence and should thus be passaged every 3/4 days using a seeding density of 2*10^6 cells per T175 flask. Cell lines were be pre-washed with phosphate buffered saline before harvesting with Trypsin/EDTA and seeded into new flasks.
HEK 293 cells expressed with hERG were plated on cover slips overnight with the cell density less than 50% of confluence. Cells used for electrophysiological study were transferred to a small cell bath (1 mL) mounted on the stage of an inverted microscope (Diaphot, Nikon) and were perfused with external solution containing (in mM) 130 NaCl, 4 KCl, 1.8 CaCl2), 1 MgCl2, 10 glucose and 10 HEPES (pH 7.4 with NaOH), the perfusion rate was 4 mL/min. The internal pipette solution contained (in mM) 130 KCl, 1 MgCl2, 5 ethylene glycol-bis(baminoethyl ether)-N,N,N8,N8-tetraacetic acid, 5 MgATP and 10 HEPES (pH 7.2 with KOH). An HEKA EPC-10 patch-clamp amplifier and PATCHMASTER acquisition program were used to record membrane currents (HEKA Instruments IncD-67466 Lambrecht/Pfalz Germany). All experiments were performed at room temperature (22-23° C.).
The Model P-97 micropipette puller (Sutter Instrument Company, One Digital Drive, Novato, Calif. 94949) was used to pull glass patch pipettes (BF150-86-10) in all experiments.
The experiments were initiated with a 2 min vehicle control period after forming a whole cell configuration with less 5% run-down in 5 min and the tail currents in the report were at least greater than 500 pA. After a 2 min vehicle control period, the perfusion was switched to the reservoir containing the compound at the first concentration. The same procedure was repeated 3-5 times so that each cell was exposed to 4-6 escalating concentrations of compound. The time courses for block and unblock of hERG during compounds exposure and washout were continuously recorded.
The peak tail of hERG was generated by applying 2-sec depolarizing every 12 sec steps from a holding potential of −80 mV, the peak of tail currents were measured at a 5-sec repolarizing pulse at −50 mV.
hERG peak tail currents were directly measured from a 5 sec repolarization pulse at −50 mV. The fraction of control current was plotted as a function of logarithm of compound concentration. To determine the concentration of compound for halfmaximum effect, the concentration-response curve was fitted by Hill equation as shown follow.
where Y is the observed value, Bottom is the lowest observed value (0), Top is the highest observed value (1), and the Hillcoefficient gives the largest absolute value of the slope of the curve.
Data were analyzed by a combination of PATCHMASTER ((HEKA Instruments IncD-67466 Lambrecht/Pfalz Germany) and Origin (OriginLab Corporation, Northampton, Mass.) software programs.
Data were expressed as mean±SEM.

These results are taken from patent US20230192705A1, “SHP2 INHIBITORS, COMPOSITIONS AND USES THEREOF” (Betta Pharmaceuticals Co., Ltd, priority 2020, published 2023).

Structures are written as SMILES.

T1 sequence (Q12809 whole entry): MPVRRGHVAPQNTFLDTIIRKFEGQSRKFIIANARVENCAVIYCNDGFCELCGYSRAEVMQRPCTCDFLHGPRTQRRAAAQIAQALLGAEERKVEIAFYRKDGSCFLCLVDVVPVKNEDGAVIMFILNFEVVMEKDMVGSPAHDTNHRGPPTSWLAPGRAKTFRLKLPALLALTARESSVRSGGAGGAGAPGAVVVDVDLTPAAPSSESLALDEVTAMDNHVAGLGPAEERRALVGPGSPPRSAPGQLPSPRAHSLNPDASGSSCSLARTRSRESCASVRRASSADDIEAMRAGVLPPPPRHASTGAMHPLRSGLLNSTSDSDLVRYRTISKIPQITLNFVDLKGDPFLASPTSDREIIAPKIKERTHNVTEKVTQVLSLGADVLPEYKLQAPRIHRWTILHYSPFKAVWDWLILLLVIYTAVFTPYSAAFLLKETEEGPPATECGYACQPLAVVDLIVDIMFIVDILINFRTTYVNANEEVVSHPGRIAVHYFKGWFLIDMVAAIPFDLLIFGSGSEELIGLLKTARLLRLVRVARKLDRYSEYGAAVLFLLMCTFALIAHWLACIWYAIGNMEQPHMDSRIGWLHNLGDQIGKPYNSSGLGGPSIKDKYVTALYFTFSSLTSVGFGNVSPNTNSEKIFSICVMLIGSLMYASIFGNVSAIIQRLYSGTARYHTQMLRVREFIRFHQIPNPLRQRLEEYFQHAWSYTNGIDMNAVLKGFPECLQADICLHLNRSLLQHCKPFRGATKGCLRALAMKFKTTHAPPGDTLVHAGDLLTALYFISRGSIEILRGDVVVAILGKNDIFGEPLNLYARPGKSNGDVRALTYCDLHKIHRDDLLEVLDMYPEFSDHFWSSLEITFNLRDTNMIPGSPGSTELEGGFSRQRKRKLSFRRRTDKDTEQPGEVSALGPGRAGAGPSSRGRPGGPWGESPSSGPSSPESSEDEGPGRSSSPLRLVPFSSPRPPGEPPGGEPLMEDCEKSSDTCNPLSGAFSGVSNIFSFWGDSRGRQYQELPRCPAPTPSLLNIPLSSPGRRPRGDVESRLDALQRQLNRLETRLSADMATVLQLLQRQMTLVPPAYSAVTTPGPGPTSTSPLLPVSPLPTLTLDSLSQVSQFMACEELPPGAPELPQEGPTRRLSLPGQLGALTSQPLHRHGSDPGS

As to `N[C@@H]1c2ccccc2CC12CCN(c1nc3[nH]nc(C4(Cc5ccccc5)CC4)c3c(=O)[nH]1)CC2` [Example 74], the “CLint Rat” value in data set [1] came out at 102.0 μL/min/mg proteins. Moreover, the “CLint Human” value in data set [2] is reported as 182.7 μL/min/mg proteins. For the same molecule, the IC50 at hERG channel worked out at 1.84 µM.
